Laboratory results as given in patent publication US8017350B2, “Glimepiride- and insulin-induced glycosylphosphatidylinositol-specific phospholipase C regulation” (Sanofi-Aventis Deutschland GmbH, priority 2004, dated 2011).

Tested on: isolated rat adipocytes
Assay: glucose transport assay (2-deoxy-D-[3H]glucose)
Type: cell-based
Details: 50 μM
Experimental: Glucose transport was determined as described in “Müller, G. et al., (1994) J. Cell Biol. 126: 1267-1276” by incubation of 10,000-20,000 washed adipocytes with 2-deoxy-D[2,6-^3H]glucose at 50 μM final conc. (0.33 μCi/ml) in 50-μl portions for 20 min at 37° C. in the absence or presence of 20 μM cytochalasin B.
Table 3: Isolated rat adipocytes were incubated in the presence of methyl-β-cyclodextrin (m-β-CD, 10 mM, 50 min), CBDP (300 μM, electroporation, followed by washing and subsequent incubation for 30 min), PIG41 (10 μM, 15 min), sodium orthovanadate (1 mM, 15 min), trypsin (10 μg/ml, 15 min followed by treatment with 0.5 M NaCl and subsequent washing) and N-ethylmaleimide (1 mM, 5 min followed by addition of DTT). After addition of GPI-2350 (50 μM final conc.) to one half of the adipocyte suspension and further incubation (60 min, 37° C.), portions of the cells were assayed for 5′-Nuc activity in the isolated IcDIGs. The increase in 5′-Nuc during the basal incubation was set at 100 arb. units. Other portions of the cells (after 15 min incubation) were assayed for glucose transport which was set at 100 arb. units for the basal incubation. Means+SD of at least 3 independent cell incubations with activity measurements in triplicate each are given.
FIG. 8: Effect of GPI-2350 on the glimepiride/insulin-induced metabolic activity. Isolated rat adipocytes were treated (5 min, 37° C.) without or with GPI-2350 (Panel A, 50 μM; Panel B, increasing conc.; Panel C, 5 μM, 50 μM) and then incubated (15 min, 37° C.) in the absence or presence of insulin (Ins, 10 nM) or glimepiride (Gli, 20 μM or increasing conc.) as indicated. The adipocytes were then assayed for glucose transport and isoproterenol-induced lipolysis. The activity is given relative to the absence of GPI-2350 in the control reaction (Panels A, basal) or in the insulin- and glimepiride-stimulated state (Panels B and C, set at 100). Means+SD of at least 5 independent cell incubations with activity measurements in triplicate each are given.

## CCCCCCCCCCCCP1(=O)O[C@@H]2[C@H](O)[C@@H](O)[C@H](O)[C@@H](O)[C@@H]2O1 (stereo partly shown) [GPI-2350, myo-inositol-1,2-cyclo-dodecylphosphonic acid]
  effect on stimulation of glucose transport in response to glimepiride: almost complete blockade
